Assays:
[1] = tested on: severe spinal cord contusion injury in the rat; assay: Mechanical sensitivity (von Frey, Up-Down) after severe spinal cord contusion injury, treatment DPO 28-35; format: in vivo; settings: for withdrawal threshold (50% threshold force): DPO 28, before start of treatment (group baseline), 15 grams before injury, vehicle group 2.7
Description: (§1) Thirteen week-old female Lewis rats (Charles River, Sulzfeld Germany) were housed under a 12:12 h dark/light regime and allowed free access to water and food. After one week of habituation the animals underwent general anesthesia with a mixture of isoflurane and air (induction: 5% isoflurane, maintenance: 2.2% isofluorane). A Th10 laminectomy was performed without rupturing the dura and a severe contusive SCI (25 gem NYU/MASCIS II impactor) (Gruner, 1992 #3) was induced. After suturing muscle and skin, a subcutaneous (s.c.) injection of 5 ml of Ringers Lactate was given. Bladders were emptied manually 2 times a day until spontaneous voiding returned (usually within 1 week). The lesion severity was verified by the impact velocity and contusion depth of the impactor rod. Animals with an impact velocity error >5% were excluded from further analysis. After injury, individual rats were randomly assigned into a treatment group. The following groups were used:
The mechanical sensitivity response was measured as the direct pressure stimulus required eliciting foot withdrawal in nonrestrained conditions. All tests were conducted in the morning between 7:30 and 10:30 am and the person performing the behavioral tests was blinded to the experimental groups. Animals were habituated to the testing apparatus for at least 20 min before testing. Each animal was subjected to the stimulation of a series of von Frey filaments ranging from 0.4 to 15 g (log force 3.61, 3.84, 4.08, 4.31, 4.56, 4.74, 4.93 and 5.18) using the Up-Down paradigm according to Chaplan (Chaplan et al., 1994). The selected von Frey filament was pressed against the plantar surface of the hind paw to the point of 30° bending for 3 s. Paw withdrawal response was considered as the positive response. The 50% threshold force needed for paw withdrawal was calculated for both hind paws of each rat and the mean value of both hind paws was used to represent the mechanical sensitivity of this animal.
(§2) Group 2: SCI+HR 325 (10 mg/kg/day) in vehicle by gavage for 7 days, from DPO 28 till DPO 35
(§3) Group 3: SCI+FK 778 (10 mg/kg/day) in vehicle by gavage for 7 day, from DPO 28 till DPO 35

[2] = tested on: severe spinal cord contusion injury in the rat; assay: Acetone test (cold chemical stimulus) after severe spinal cord contusion injury, treatment DPO 28-35; format: in vivo; settings: 10 mg/kg/day by gavage DPO 28 till DPO 35
Description: as §1, §2, §3
A slightly modified method of De la Calle and colleagues (De la Calle et al., 2002) was used for the determination of the reactivity to a cold chemical stimulus. The rat was placed in acrylic cages on top of a wire mesh grid, which allowed access to the paws, and acetone was applied to the plantar surface of the hind paw. To do this, 100 μl of acetone was sprayed onto the plantar surface of the rat's hind leg from below the grid with a syringe holding 2.5 ml. The time spent with the leg withdrawn from floor during the 60 s following exposure to acetone was recorded. Both hind legs were tested in each animal with an interval of 5-10 min between each test. The average reaction time between the two legs was taken for further analysis. A minimal value of 1 s was assigned to convey a fast or brisk reaction, while 0 was assigned if there was no reaction at all. This acetone test has been described as composing of cold, chemical, and possibly mechanical stimulation.

[3] = tested on: spinal cord contusion injury; assay: Mechanical sensitivity (von Frey, Up-Down), chronic central neuropathic pain three months after spinal cord contusion injury, treatment DPO 84-91; format: in vivo, rat; settings: DPO 28, before treatment (group baseline, stable up to DPO 84); 15 grams before injury; vehicle group 3.2
Description: as §1, with “used: The mechanical sensitivity response was measured as the direct pressure stimulus required eliciting foot withdrawal in nonrestrained conditions. […] The 50% threshold force needed for paw withdrawal was calculated for both hind paws of each rat and the mean value of both hind paws was used to represent the mechanical sensitivity of this animal. […]” for “used:”

[4] = tested on: partial ligation of the sciatic nerve; assay: Mechanical sensitivity (von Frey, Up-Down) after partial ligation of the sciatic nerve; format: in vivo, rat; settings: DPO 21, after daily oral 10 mg/kg DPO 14 till DPO 21; 60 grams before injury, 19 grams at DPO 14 before treatment; FIG. 8
Description: The mechanical sensitivity response was measured as the direct pressure stimulus required eliciting foot withdrawal in nonrestained conditions. Animals were habituated to the testing apparatus for at least 20 min before testing. Each animal was subjected to the stimulation of a series of von Frey filaments ranging from 1.0 to 60 g using the Up-Down paradigm according to Chapter (Chaplan et al., 1994). The selected von Frey filament was pressed against the plantar surface of the hind paw to the point of 30° bending for 3 s. Paw withdrawal response was considered as the positive response. The 50% threshold force needed for paw withdrawal was calculated for both hind paws of each rat. The methods of Seltzer et al. (1990) were followed. The dorsum of the sciatic nerve was carefully freed from surrounding connective tissues at a site near the trochanter just distal to the point at which the posterior biceps semitendinosus nerve branches off the common sciatic nerve. The nerve was fixed in its place by pinching the epineurium on its dorsal aspect, taking care not to press the nerve against underlying structures. An 8-0 (Polyamide 6) suture was inserted into the nerve and tightly ligated so that the dorsal ⅓-½ of the nerve thickness was trapped in the ligature (Seltzer et al., 1990). […]

| Structure (SMILES) | reversal of mechanical allodynia after experimental spinal cord injury (conclusion) ([1]; 10 mg/kg/day by gavage DPO 28 till DPO 35) | withdrawal threshold (50% threshold force) [1] [grams] | withdrawal threshold vs vehicle control animals ([1]; DPO 35, 10 mg/kg/day by gavage DPO 28 till DPO 35, one-way ANOVA p<0.001, FIG. 2) | withdrawal threshold, difference to vehicle controls ([1]; end of experiment DPO 77, 10 mg/kg/day by gavage DPO 28 till DPO 35, p<0.001) | reversal of cold allodynia after experimental spinal cord injury (conclusion) [2] | duration of response to acetone exposure vs vehicle controls ([2]; DPO 35, one-way ANOVA p<0.01, FIG. 3) | duration of response to acetone exposure vs vehicle controls ([2]; DPO 56, ANOVA p<0.001, Bonferroni post-hoc) | duration of response to acetone exposure, differences to vehicle controls ([2]; end of experiment DPO 70, p<0.01) | withdrawal threshold (50% threshold force) [3] [grams] | withdrawal threshold in the ipsilateral paw [4] [grams] |
| --- | --- | --- | --- | --- | --- | --- | --- | --- | --- | --- |
| C#CCCC(O)=C(C#N)C(=O)Nc1ccc(C(F)(F)F)cc1 [FK-778, N-(4-trifluoromethyl)-phenyl-2-cyano-3-hydroxy-hept-2-en-6-in-carboxylic acidamide] | able to reverse mechanical allodynia | 3.1 | significantly higher | statistically significant difference between the treated animals and the vehicle controls remained | able to reverse cold allodynia | responded significantly shorter | responded significantly shorter | differences remained unchanged |  |  |
| Cc1cc(NC(=O)/C(C#N)=C(\O)C2CC2)ccc1C(F)(F)F [HR-325, 1(3-methyl-4-trifluoromethylphenyl-carbamoyl)-2-cyclopropyl-2oxo-propionitrile] |  | 3.0 |  |  |  |  |  |  | 2.7 | 54 |

— US9468615B2, “Use of malononitrilamides in neuropathic pain” (AL-GIAX Pharmaceuticals GMBH, priority 2010, dated 2016)
